A short description of data set [1]: TEM imaging of negatively stained dodeca-5,7-diynoyl phosphonic acid vesicles (size). It counts as physicochemical. As to the method:
Twice the value of the CMC determined for n-dodecanephosphonic acid (2.94×10^−4 M)^4 was used to assure aggregate formation in these experiments due to the limited amount of the final product. All samples were prepared in the manner described by Schulz, supra, using solutions buffered to a pH of 5.5 with 5 mM MES.
Samples prepared in the above manner were imaged using TEM by negatively staining the samples with 1% uranyl acetate. FIG. 2 is a picture of unpolymerized vesicles of dodeca-5,7-diynoyl phosphonic acid within four days of their initial preparation. It appears from this micrograph that the aggregates are small and relatively spherical compared to the fully saturated aggregates of n-dodecanephosphonic acid prepared as described hereinbelow. The average size of these vesicles is roughly 50 nm in diameter with the sizes of individual aggregates ranging from 4 nm to over 400 nm. […] This behavior was only observed with freshly prepared aggregates prior to their exposure to light. One explanation for this behavior is that it represents an artifact of drying the sample in the presence of the metal stain used to visualize it.
FIG. 3 is a micrograph of the same sample after one week. It is noteworthy that the vesicles are still spherical though they now appear to be smaller and have a more irregular exterior surface. […] Moreover, there was no evidence of the rolled cylinders previously imaged in the fresh aggregate solutions.

A short description of data set [2]: Dissolution in buffered aqueous solution. It counts as physicochemical.
Data set [3] in a line: TEM size of n-dodecanephosphonic acid aggregates, metal-free and metallated with iron salts. It is filed as physicochemical. The note with it: metal-free aggregates, 3×10^−4 molar in 5 mM MES. The protocol:
(§1) An aggregate was prepared using n-dodecanephosphonic acid. Specifically, a 3×10^−4 molar (on average) solution of n-dodecanephosphonic acid was used, which was prepared by adding 17 mg dodecanephosphonic acid to 250 mL of a 5 mM solution of morpholinoethanesulfonic acid (MES) buffer solution. This solution was heated in a boiling water bath for 40-60 minutes. The solution was then cooled and allowed to sit undisturbed for 3 days (following Shulz' procedure (21)). This preparation was used to produce the desired micelles and the reported critical micelle concentration (CMC) was independently confirmed through measurement of the surface tension by means of a Wilhelmy Plate Balance (22). […] It has also been determined that these aggregates are stable over the pH range of 4-6, with minimal structural changes.
The choice of biologically compatible metal ion used to bind to the micelle exterior directly influences the size and the shape of the resulting aggregates. Iron (III) salts are preferred because they are relatively inexpensive, readily available in several simple forms and known to be biologically compatible. However, other metal ions may be used if desired, including, without limitation, Zr (IV), Mg(II), Ca(II), Co(II) and Zn(II) salts. […]

Data set [4] in a line: pH stability of n-dodecanephosphonic acid aggregates. It is filed as physicochemical. To be noted: minimal structural changes. The protocol: as §1
For data set [5] the following is noted: reported value, independently confirmed by surface tension measurement; cited from earlier work.

As for `CCCCC#CC#CCCCC(=O)P(=O)(O)O` [dodeca-5,7-diynoyl phosphonic acid, Dodeca-5,7-diynoyl phosphonic acid], in data set [1] (same sample after one week), the “average size of aggregates (diameter)” value is on record as roughly 50 nm and the “largest vesicles present in the sample” value is no more than 100 nm. For the same molecule, the “average size of vesicles (diameter)” value in data set [1] (unpolymerized vesicles, within four days of preparation, pH 5.5, 5 mM MES) is on record as “roughly 50 nm”. For the same molecule, in data set [2], the “solubility in buffered aqueous solutions” value was “readily dissolves in buffered aqueous solutions to form vesicles”.
For the molecule `CCCCCCCCCCCCP(=O)(O)O` [n-dodecanephosphonic acid], the “average diameter of aggregates” value in data set [3] is 20-120 nm. In addition, the “pH range over which aggregates are stable” value in data set [4] is recorded as 4-6. Moreover, the “critical micelle concentration (CMC)” value in data set [5] was 294 µM.

The values above are taken from patent US20030224038A1, “Cross-linkable phosphonate-containing supramolecular complexes and their use for delivery of therapeutic and diagnostic agents” (priority 2002, published 2003).
